Source: patent US12384754B2, “Cocrystals of (1R,3S)-3-(5-cyano-4-phenyl-1,3-thiazol-2-ylcarbamoyl)cyclopentane carboxylic acid” (PALOBIOFARMA, S.L., priority 2020, dated 2025)
Read-outs that look alike come from different tables or passages of the source.

Legend:
[1] = pKa / ΔpKa of free acid and cocrystal forming compounds; assay type: physicochemical
Description: Cocrystals are distinguished from salts because unlike salts, the components that co-exist in the cocrystal lattice with a defined stoichiometry interact nonionically. […] If this criterion is met, the API-coformer entity should be classified as a cocrystal. (Regulatory Classification of Pharmaceutical Co-Crystals Guidance for Industry, February 2018, http://www.fda.gov/Drugs/GuidanceComplianceRegulatotyInformation/Guidances/default.htm).

[2] = Hygroscopicity study by DVS (Dynamic Vapour Sorption); assay type: physicochemical; settings: for moisture content, 15% RH / moisture content, 35% RH / moisture content, 55% RH / moisture content, 75% RH: DVS, 25° C.; for variation in the moisture content: at 75% RH
Method: Hygroscopicity study. The hygroscopicity of cocrystals was determined by DVS (Dynamic Vapour Sorption) with a Q5000 TA instrument. This is a gravimetric technique that measures the amount of water absorbed or desorbed by a sample at different relative humidities (RH). At each RH level, the sample mass must be allowed to reach gravimetric equilibrium (or surpass the time limit) before progressing to the next humidity level. Sorption and desorption isotherms were performed at 25° C. over a range of 0-95% RH. The sample was not previously dried, but it was exposed to 0% RH until reaching a stable weight before starting the DVS cycle. This equilibration step allows the elimination of the possible adsorbed humidity from the atmosphere. The relative humidity (RH) was controlled by a mixture of wet and dry nitrogen stream. The RH was held constant until the equilibrium had been obtained (constant weight) or until the maximum time has been reached, before changing the RH to the next level.

[3] = Plasma pharmacokinetics / oral bioavailability after single IV and PO administration; assay type: in vivo; settings: male SD rats; for F % (bioavailability): po 5 mg/Kg vs iv 1 mg/Kg
Method: The objective of this study was to investigate the plasma pharmacokinetics of differentes cocrystals obtained from (1R,3S)-3-(5-cyano-4-phenyl-1, 3-thiazol ylcarbamoyl) cyclopentane carboxylic acid, following a single intravenous (IV) and oral (PO) administration in male SD rats.
Animals were divided into two groups: Group 1 (IV: 1 mg/kg) and Group 2 (PO: 5 mg/kg). Animals in Group 1 and 2 were administered a solution of the different cocrystals of (1R,3S)-3-(5-cyano-4-phenyl-1,3-thiazol-2-ylcarbamoyl) cyclopentane carboxylic acid in normal saline. The blood samples were collected from set of three rats at each time point in labeled micro centrifuge tube containing K2EDTA solution as anticoagulant at Pre-dose, 0.083, 0.25, 0.5, 1, 2, 4, 8 and 24 hr (IV) and Pre-dose, 0.25, 0.5, 1, 2, 4, 6, 8 and 24 hr (PO). Plasma samples were separated by centrifugation of whole blood and stored below −70±10° C. until bioanalysis. All samples were processed for analysis by protein precipitation using acetonitrile and analyzed with fit-for-purpose LC-MS/MS method (LLOQ=1.00 ng/ml). Pharmacokinetic parameters were calculated using the non-compartmental analysis tool of Phoenix WinNonlin® (Version 6.3).

[4] = Comparative bioavailability assay in healthy volunteers; assay type: in vivo; settings: for AUC0-t, MEAN ± SD / AUC0-t, geometric mean / AUC0-∞, MEAN ± SD / AUC0-∞, geometric mean / Cmax / Tmax / Cmax, MEAN ± SD / Cmax, geometric mean / tmax, median and range: single oral dose, Example 1 5 mg, Example 2 7.3 mg; for Cmax / Tmax: male, human, plasma, po, 5 mg; for Tmax: read-out: tmax, median and range
Method: Healthy volunteers in this study will be males 18 years of age or older in order to assess the comparative bioavailability of compound of Example 2 versus compound of Example 1, under fasting conditions and to investigate the effect of a high fat, high calorie meal. Compounds will be administered orally in single dose of Example 1 (5 mg) and Example 2 (7.3 mg). The study will have a randomized, open-label, four-fold crossover design.
In order to determine comparative bioavailability AUC0-t (AUC0-t: Area under the plasma concentration-time curve from time 0 h to the last measurable concentration) and Cmax (Cmax: Observed maximum plasma concentration (peak exposure)) will be determined after each administration.
16 volunteers were included in the study. […] Therefore, all the data were included in all pharmacokinetic measurements and calculations, without any adjustment.

[5] = Crystalline stability under accelerated storage conditions (40° C., 75±5 RH %), XRPD; assay type: physicochemical; settings: for Stability, 1 week / Stability, 2 weeks / Stability, 3 weeks / Stability, 4 weeks: 40° C., 75±5 RH %, XRPD; for Stability under forced conditions (one week) and in 4-weeks stability assay: crystallinity, colour, aspect
Method: Crystalline stability study was performed under accelerated stability conditions (40° C., 75±5 RH %) for one week. A sample of each form stored on a XRPD silicon holder was exposed in a climatic chamber. It is worth noting that these conditions are very drastic because the high surface exposed to the storage conditions might favour possible crystalline conversion. The samples were periodically analysed by XRPD to observe possible transformation.
Additional crystalline stability study was performed under accelerated stability conditions (40° C., 75±5 RH %). Cocrystal samples were stored in an open vial and exposed in a climate chamber maintaining the conditions set with accuracy (40° C.-75% RH ±5 RH). These samples were analysed weekly for 1 month.
The stability of the cocrystalline forms of (1R,3S)-3-(5-cyano-4-phenyl-1,3-thiazol ylcarbamoyl) cyclopentane carboxylic acid were studied under accelerated storage conditions (40° C., 75±5 RH %) for one to four week. See results in Table 5.
After time exposure, cocrystals remained stable according to XRPD analysis. Amorphization or appearance of crystalline forms was not detected in the limit of detection of the analysis conditions.

[6] = Fed (high fat, high calorie meal)

Row | moisture content, 15% RH [2] | moisture content, 35% RH [2] | moisture content, 55% RH [2] | moisture content, 75% RH [2] | variation in the moisture content [2] [%] | F % (bioavailability) [3] [%] | AUClast ([3]; po, 5 mg/Kg) [ng·h/mL] | Cmax ([3]; po, 5 mg/Kg) [ng/mL] | Stability, 1 week [5] | Stability, 2 weeks [5] | Stability, 3 weeks [5] | Stability, 4 weeks [5] | Compound | Stability under forced conditions (one week) and in 4-weeks stability assay [5] | also measured
1 | 0.0168 | 0.1842 | 0.3008 | 0.4369 | 0.43 | 47 | 5200.71 | 2012 |  |  |  |  | N#Cc1sc(NC(=O)[C@H]2CC[C@@H](C(=O)O)C2)nc1-c1ccccc1 [Example 1, (1R,3S)-3-(5-cyano-4-phenyl-1,3-thiazol-2-ylcarbamoyl) cyclopentane carboxylic acid] |  | pKa ([1]; free acid, read-out: pKa): 4.3; AUC0-t, MEAN ± SD ([4]; Fasting): 1155.0 ± 567.8 ng/mLxh; AUC0-t, geometric mean ([4]; Fasting): (1052.8) ng/mLxh; AUC0-∞, MEAN ± SD ([4]; Fasting): 1257.2 ± 661.9 ng/mLxh; AUC0-∞, geometric mean ([4]; Fasting): (1132.2) ng/mLxh; AUC0-t, MEAN ± SD [4, 6]: 588.1 ± 160.9 ng/mLxh; AUC0-t, geometric mean [4, 6]: (567.9) ng/mLxh; AUC0-∞, MEAN ± SD [4, 6]: 657.9 ± 191.4 ng/mLxh; AUC0-∞, geometric mean [4, 6]: (632.7) ng/mLxh; Cmax ([4]; Fasting, read-out: Cmax, MEAN ± SD): 187 ± 71.6 ng/mL; Cmax ([4]; Fasting, read-out: Cmax, geometric mean): 176 ng/mL; Tmax ([4]; Fasting): 2.5 h; Cmax ([4]; Fed (high fat, high calorie meal), read-out: Cmax, MEAN ± SD): 68 ng/mL; Cmax ([4]; Fed (high fat, high calorie meal), read-out: Cmax, geometric mean): 65.6 ng/mL; Tmax [4, 6]: 7 h
2 | 0.0079 | 0.0175 | 0.0398 | 0.1035 | 0.10 | 100 | 16502.48 | 8642.28 | stable | stable | stable | stable | N#Cc1sc(NC(=O)[C@H]2CC[C@@H](C(=O)O)C2)nc1-c1ccccc1.O=C(O)c1cc(O)ccc1O [Example 2, cocrystal of (1R,3S)-3-(5-cyano-4-phenyl-1,3-thiazol-2-ylcarbamoyl) cyclopentane carboxylic acid and gentisic acid] | no crystallinity changes, colour or any other change in the aspect were observed | Hygroscopicity compared with the free acid ([2]; usual storage conditions of drugs (<75% RH), up to 75% RH, listed as cocrystal with gentisic acid): less hygroscopic than free acid; Hygroscopicity compared with the free acid ([2]; usual storage conditions of drugs (<75% RH), up to 75% RH, listed as gentisic acid cocrystal): less hygroscopicity than the free acid; AUClast ([3]; iv, 1 mg/Kg): 3304.55 ng·h/mL; Clearance ([3]; iv, 1 mg/Kg): 5.03 mL/min/kg; AUC0-t, MEAN ± SD ([4]; Fasting): 1138.5 ± 451.1 ng/mLxh; AUC0-t, geometric mean ([4]; Fasting): (1071.4) ng/mLxh; AUC0-∞, MEAN ± SD ([4]; Fasting): 1216.5 ± 483.3 ng/mLxh; AUC0-∞, geometric mean ([4]; Fasting): (1141.7) ng/mLxh; Cmax, MEAN ± SD ([4]; Fasting): 173.7 ± 60.7 ng/mL; Cmax, geometric mean ([4]; Fasting): (165.8) ng/mL; tmax, median and range ([4]; Fasting): 2.25 (1.5-5.0) h; AUC0-t, MEAN ± SD [4, 6]: 599.1 ± 132.1 ng/mLxh; AUC0-t, geometric mean [4, 6]: (585.9) ng/mLxh; AUC0-∞, MEAN ± SD [4, 6]: 675.0 ± 158.8 ng/mLxh; AUC0-∞, geometric mean [4, 6]: (659.1) ng/mLxh; Cmax, MEAN ± SD [4, 6]: 73.6 ± 25.1 ng/mL; Cmax, geometric mean [4, 6]: (69.8) ng/mL; tmax, median and range [4, 6]: 7.0 (5.0-7.0) h; Cmax compared with Example 1 ([4]; administered after a high fat meal): slightly higher
3 | 0.015 | 0.0339 | 0.0545 | 0.0895 | 0.08 | 100 | 19238.03 | 10227.47 | stable | stable | stable | stable | N#Cc1sc(NC(=O)[C@H]2CC[C@@H](C(=O)O)C2)nc1-c1ccccc1.NC(N)=O [Example 3, cocrystal of (1R,3S)-3-(5-cyano-4-phenyl-1,3-thiazol-2-ylcarbamoyl) cyclopentane carboxylic acid and urea] | no crystallinity changes, colour or any other change in the aspect were observed | Hygroscopicity compared with the free acid ([2]; usual storage conditions of drugs (<75% RH), up to 75% RH, listed as cocrystal with urea): less hygroscopic than free acid; Hygroscopicity compared with the free acid ([2]; usual storage conditions of drugs (<75% RH), up to 75% RH, listed as urea cocrystal): less hygroscopicity than the free acid; AUClast ([3]; iv, 1 mg/Kg): 2714.55 ng·h/mL; Clearance ([3]; iv, 1 mg/Kg): 6.12 mL/min/kg
4 |  |  |  |  |  |  |  |  |  |  |  |  | O=C(O)c1cc(O)ccc1O [Gentisic acid, 2,5-dihydroxybenzoic acid] |  | pKa conjugated base ([1]; cocrystal forming compound): Not basic
5 |  |  |  |  |  |  |  |  |  |  |  |  | NC(=O)c1cccnc1 [Nicotinamide, 3-pyridinecarboxamide] |  | ΔpKa ([1]; between the free acid (pKa 4.3) and the cocrystal forming compound): 0.9; pKa ([1]; cocrystal forming compound, read-out: pKa conjugated base): 3.4
6 |  |  |  |  |  |  |  |  |  |  |  |  | NC(N)=O [Urea, urea] |  | pKa conjugated base ([1]; cocrystal forming compound): Not basic

Row | Compound | moisture content, 15% RH [2] | moisture content, 35% RH [2] | moisture content, 55% RH [2] | moisture content, 75% RH [2] | variation in the moisture content [2] [%] | F % (bioavailability) [3] [%] | AUClast ([3]; po, 5 mg/Kg) [ng·h/mL] | Cmax ([3]; po, 5 mg/Kg) [ng/mL] | Stability, 1 week [5] | Stability, 2 weeks [5] | Stability, 3 weeks [5] | Stability, 4 weeks [5] | Stability under forced conditions (one week) and in 4-weeks stability assay [5] | also measured
7 | N#Cc1sc(NC(=O)[C@H]2CC[C@@H](C(=O)O)C2)nc1-c1ccccc1.NC(=O)c1cccnc1 [Example 4, cocrystal of (1R,3S)-3-(5-cyano-4-phenyl-1,3-thiazol-2-ylcarbamoyl) cyclopentane carboxylic acid and nicotinamide] | 0.029 | 0.066 | 0.165 | 0.4584 |  |  |  |  | stable | stable | stable | stable | no crystallinity changes, colour or any other change in the aspect were observed | Hygroscopicity compared with the free acid ([2]; range between 5-70% RH): less hygroscopicity than the free acid
